Measured values taken from patent US20230242526A1 (Zentaur Therapeutics International Limited, priority 2020, published 2023).

System: human ovarian carcinoma OVCAR3 cell line
Experiment: CyQUANT Direct cell proliferation assay, OVCAR-3
Assay type: cell-based
Conditions: OVCAR-3, 168 h, 7 days
From the text: The human ovarian carcinoma OVCAR3 cell line (ATCC HTB-161™) or human breast squamous HCC1806 cell line (ATCC CRL 2335) were obtained from American Type Culture Collection (ATCC), and maintained in culture media according to the supplier's specification.
The CyQUANT® Direct Cell Proliferation Assay Kit (Invitrogen™, catalog No. G35012) was utilized to test the inhibitory activities of the CDK2 inhibitors described in this disclosure against OVCAR3 or HCC1806 tumor cells.
CyQUANT® Direct Cell Proliferation Assay: The spent medium from the purchased tumor cell culture plate was removed and the tumor cells were washed with PBS buffer twice. Trypsin (VWR catalog No. 0458-25G) was added to digest the tumor cells until tumor cells appeared round shaped and to dissociate adherent cells from the plate wall in which they are being cultured. Then RPMI-1640 media (HCC1806, Gibco™ catalog No, A10491-01) with 10% fetal bovine serum (FBS) (Hyclone™ catalog No. SV30160.03), or RPMI-1640 media (OVCAR-3, Gibco™ catalog No. 10370-021) with 20% FBS and 0.01 mg/mL insulin was added to stop the trypsin digestion reaction. The tumor cells were lightly agitated with a liquid transfer pipette to cause tumor cells suspended in the culture media. The cells were counted. The complete medium was used to prepare tumor cell suspension.
OVCAR3 or HCC1806 cells were seeded at 40 μL/well in 384-well plates in growth media containing FBS and cultured 24 hours in the incubator at 37° C., 5% CO2. […] Compound solutions were added by Agilent Bravo liquid handler. […] The control wells contained the growth medium having 0.1% DMSO. Cells were incubated at 37° C., 5% CO2 for 7 days.
CYQUANT Direct Cell Proliferation Assay (Molecular Probes, Eugene, Oreg.) was then performed following manufacturer's instructions to prepare the detection reagents. 50 μL of detection reagent was aliquot and added to each well and the cells were incubated at 37° C. for 1 hr.
The cell culture plates were placed on TECAN M1000 microplate reader to detect the fluorescence intensity at 508 nm excitation and 527 nm emission wavelengths. Graphpad Prism 6.0 software was used for data processing, preparing cell growth curve, calculating percentage inhibition on cell growth. IC50 values were calculated by concentration-response curve fitting utilizing a four-parameter analytical method using GraphPad Prism software.

Compound | IC50 [µM]
[2H]C(F)(F)c1cc2cnc(NC3CCN(S(C)(=O)=O)CC3)nc2n([C@@H]2CCC[C@@]2(C)O)c1=O [Comp. 28, (−)-6-(difluoromethyl-d)-8-((1R,2R)-2-hydroxy-2-methylcyclopentyl)-2-((1-(methylsulfonyl)piperidin-4-yl)amino)pyrido[2,3-d]pyrimidin-7(8H)-one] | 0.0325
C[C@@]1(O)CCC[C@H]1n1c(=O)c(C(F)F)cc2cnc(NC3CCN(S(C)(=O)=O)CC3)nc21 [Comp. 5, (−)-6-(difluoromethyl)-8-((1R,2R)-2-hydroxy-2-methylcyclopentyl)-2-((1-(methylsulfonyl)piperidin-4-yl)amino)pyrido[2,3-d]pyrimidin-7(8H)-one, reference compound] | 0.0403
